Common to all, as to assay type: physicochemical
Series [1] can be described thus: photochromic response of test squares on an optical bench (sensitivity, saturation optical density, bleach rate). To be noted: for ΔOD @ Saturation (Band A) / ΔOD @ Saturation (Band B): UV exposure 15 minutes; for ΔOD @ Saturation (Band A) / Sensitivity ΔOD/MIN (Band A) / ΔOD @ Saturation (Band B) / Sensitivity ΔOD/MIN (Band B): 72° F. (22.2° C.), polymer test square; for Sensitivity ΔOD/MIN (Band A) / Sensitivity ΔOD/MIN (Band B): first five (5) seconds of UV exposure, expressed per minute; for Bleach Rate T 1/2: measured at band B, room temperature (72° F., 22.2° C.) after removal of activating light. The method, then: (§1) Testing was done with the photochromic compounds described in Examples 1 through 20 and Comparative Examples 1 through 3 in the following manner. A quantity of photochromic compound calculated to yield a 1.5×10^-3 molal solution was added to a flask containing 50 grams of a monomer blend of 4 parts ethoxylated bisphenol A dimethacrylate (BPA 2EO DMA), 1 part poly(ethylene glycol) 600 dimethacrylate, and 0.033 weight percent 2,2'-azobis(2-methyl propionitrile) (AIBN). The photochromic compound was dissolved into the monomer blend by stirring and gentle heating, if necessary. After a clear solution was obtained, it was poured into a flat sheet mold having the interior dimensions of 2.2 mm×6 inches (15.24 cm)×6 inches (15.24 cm). The mold was sealed and placed in a horizontal air flow, programmable oven programmed to increase the temperature from 40° C. to 95° C. over a 5 hour interval, hold the temperature at 95° C. for 3 hours, lower it to 60° C. over a 2 hour interval and then hold it at 60° C. for 16 hours. After the mold was opened, the polymer sheet was cut using a diamond blade saw into 2 inch (5.1 centimeters) test squares.
(§2) The photochromic test squares of Part A were tested for photochromic response rates on an optical bench. Prior to testing on the optical bench, the photochromic test squares were exposed to 365 nanometer ultraviolet light for about 15 minutes to activate the photochromic compounds and then placed into a 76° C. oven for about 15 minutes to bleach the photochromic compounds. The test squares were then cooled to room temperature, exposed to fluorescent room lighting for at least 2 hours and then kept covered for at least 2 hours prior to testing on an optical bench maintained at 72° F. (22.2° C.). The bench was fitted with a 250 watt Xenon arc lamp, a remote controlled shutter, a copper sulfate bath acting as a heat sink for the arc lamp, a Schott WG-320 nm cut-off filter which removes short wavelength radiation; neutral density filter(s) and a sample holder in which the square to be tested was inserted. The power output of the optical bench, i.e., the dosage of light that the sample lens would be exposed to, was calibrated with a photochromic test square used as a reference standard. […] The UV-A detector was placed into the sample holder and the light output was measured. Adjustments to the power output were made by increasing or decreasing the lamp wattage or by adding or removing neutral density filters in the light path.
A monitoring, collimated beam of light from a tungsten lamp was passed through the square at a small angle (approximately 30°) normal to the square. After passing through the square, the light from the tungsten lamp was directed to a detector through Spectral Energy Corp. GM-200 monochromator set at the previously determined visible lambda max of the photochromic compound being measured. The output signals from the detector were processed by a radiometer.
Change in optical density (ΔOD) was determined by inserting a test square in the bleached state into the sample holder, adjusting the transmittance scale to 100%, opening the shutter from the Xenon lamp to provide ultraviolet radiation to change the test square from the bleached state to an activated (i.e., darkened) state, measuring the transmittance in the activated state, and calculating the change in optical density according to the formula: ΔOD=log(100/% Ta), where % Ta is the percent transmittance in the activated state and the logarithm is to the base 10.
The ΔOD/Min, which represents the sensitivity of the photochromic compound's response to UV light, was measured over the first five (5) seconds of UV exposure, then expressed on a per minute basis. The saturation optical density (ΔOD@ Saturation) was taken under identical conditions as the ΔOD/Min, except UV exposure was continued for 15 minutes. […]

A short description of series [2]: Relative ΔOD at Saturation Test. To be noted: ΔOD at saturation (Band A)/ΔOD at saturation (Band B)×100.
Excerpt: In accordance with the present invention, it has now been discovered that certain novel indeno[2,1-f]naphtho[1,2-b]pyrans having two absorption bands in the activated (colored) state, an acceptable fade rate, high activated intensity, a high coloration rate and a rating of 80 or higher in the Relative ΔOD at Saturation Test may be prepared. The Relative ΔOD at Saturation Test is described in Example 21. The ratings of the test are defined herein as the result obtained when the optical density of band "A" is divided by the optical density of band "B" and multiplied by 100. It is believed that compounds having a rating of 80 or higher are most valuable for formulating neutral grays, greens and browns for commercial photochromic ophthalmic eyeware.
as §1, §2
Change in optical density (ΔOD) was determined by inserting a test square in the bleached state into the sample holder, adjusting the transmittance scale to 100%, opening the shutter from the Xenon lamp to provide ultraviolet radiation to change the test square from the bleached state to an activated (i.e., darkened) state, measuring the transmittance in the activated state, and calculating the change in optical density according to the formula: ΔOD=log(100/% Ta), where % Ta is the percent transmittance in the activated state and the logarithm is to the base 10. […]

Series [3] can be described thus: lambda max (Vis) of activated photochromic test squares in a Varian Cary 3 uv-visible spectrophotometer. To be noted: activated form in test square. Here is the method: as §1
The lambda max (Vis) is the wavelength in the visible spectrum at which the maximum absorption of the activated (colored) form of the photochromic compound in a test square occurs. The lambda max (Vis) wavelengths reported in Table 1 were determined by testing the photochromic test square polymerizates of Part A in a Varian Cary 3 uv-visible spectrophotometer. The bleach rate (T 1/2) is the time interval in seconds for the absorbance of the activated form of the photochromic compound in the test squares to read one half the highest absorbance at room temperature (72° F., 22.2° C.) after removal of the source of activating light.
For each lambda max visible, the corresponding optical density (Δ OD/Min and Δ OD at saturation) for the desired compounds of the Examples and Comparative Examples are tabulated in Table 1 for the two bands (A and B) of peak absorption for each compound. Table 1 also includes the bleach rate (T 1/2) for each of the compounds as measured at band B. The ratings of the Relative Δ OD at Saturation Test for the bands A and B of each of the Examples and Comparative Examples are calculated as follows: Δ OD at saturation (Band A)/Δ OD at saturation (Band B)×100.

On to `CCC1(CC)c2cc(OC)c(OC)cc2-c2c1c1c(c3cc(OC)c(OC)cc23)OC(c2ccc(OC)cc2)(c2ccc(OC)cc2)C=C1` [Example 6, 3,3-di(4-methoxyphenyl)-6,7,10,11-tetramethoxy-13,13-diethyl-3H,13H-indeno[2,1-f]naphtho[1,2-b]pyran], for which, in series [1], the “ΔOD @ Saturation (Band A)” value is reported as 1.02, the “Sensitivity ΔOD/MIN (Band A)” value is recorded as 0.46 ΔOD/MIN, the “ΔOD @ Saturation (Band B)” value is 0.73 and the “Sensitivity ΔOD/MIN (Band B)” value was 0.37 ΔOD/MIN. Further, the “Bleach Rate T 1/2” value in series [1] was found to be 5.17 min. Moreover, in series [2], the “Relative ΔOD at Saturation (rating)” value stood at 140. In series [3], the “λ MAX Vis (Band A)” value is 440 nm and the “λ MAX Vis (Band B)” value is 608 nm.
On to `COc1ccc(C2(c3ccc(OC)cc3)C=Cc3c4c(c5cc(OC)c(OC)cc5c3O2)-c2ccccc2C4c2ccccc2)cc1` (stereo not shown) [Example 7, 3,3-di(4-methoxyphenyl)-6,7-dimethoxy-13-phenyl-3H,13H-indeno[2,1-f]naphtho[1,2-b]pyran], for which, in series [1], the “ΔOD @ Saturation (Band A)” value stood at 0.66, the “Sensitivity ΔOD/MIN (Band A)” value was 0.17 ΔOD/MIN, the “ΔOD @ Saturation (Band B)” value is recorded as 0.43 and the “Sensitivity ΔOD/MIN (Band B)” value was 0.16 ΔOD/MIN. Moreover, the “Bleach Rate T 1/2” value in series [1] is 3.43 min. Also, in series [2], the “Relative ΔOD at Saturation (rating)” value came to 153. Further, in series [3], the “λ MAX Vis (Band A)” value came out at 460 nm and the “λ MAX Vis (Band B)” value is listed as 577 nm.
Regarding `COc1ccc(C2(c3ccc(N4CCOCC4)cc3)C=Cc3c4c(c5cc(OC)c(OC)cc5c3O2)-c2ccccc2C4c2ccccc2)cc1` (stereo not shown) [Example 8, 3-(4-methoxyphenyl)-3-(4-morpholinophenyl)-6,7-dimethoxy-13-phenyl-3H, 13H-indeno[2,1-f]naphtho[1,2-b]pyran], in series [1], the “ΔOD @ Saturation (Band A)” value came to 0.43, the “Sensitivity ΔOD/MIN (Band A)” value was 0.14 ΔOD/MIN, the “ΔOD @ Saturation (Band B)” value was 0.44 and the “Sensitivity ΔOD/MIN (Band B)” value is 0.18 ΔOD/MIN. Besides, the “Bleach Rate T 1/2” value in series [1] came to 2.98 min. In series [2], the “Relative ΔOD at Saturation (rating)” value was found to be 98. In series [3], the “λ MAX Vis (Band A)” value was determined as 484 nm and the “λ MAX Vis (Band B)” value is reported as 603 nm.
On to `COc1ccc(C2(c3ccc(N4CCOCC4)cc3)C=Cc3c4c(c5cc(OC)c(OC)cc5c3O2)-c2ccccc2C4(C)C)cc1` (stereo not shown) [Example 9, 3-(4-methoxyphenyl)-3-(4-morpholinophenyl)-6,7-dimethoxy-13,13-dimethyl-3H,13H-indeno[2,1-f]naphtho[1,2-b]pyran], for which, in series [1], the “ΔOD @ Saturation (Band A)” value is on record as 0.60, the “Sensitivity ΔOD/MIN (Band A)” value was 0.18 ΔOD/MIN, the “ΔOD @ Saturation (Band B)” value was found to be 0.59 and the “Sensitivity ΔOD/MIN (Band B)” value is given as 0.23 ΔOD/MIN. Further, the “Bleach Rate T 1/2” value in series [1] was found to be 3.4 min. The “Relative ΔOD at Saturation (rating)” value in series [2] is reported as 102. Besides, in series [3], the “λ MAX Vis (Band A)” value came out at 477 nm and the “λ MAX Vis (Band B)” value is reported as 597 nm.
`COc1ccc(C2(c3ccc(N(C)C)cc3)C=Cc3c4c(c5cc(OC)c(OC)cc5c3O2)-c2ccccc2C4(C)C)cc1` (stereo not shown) [Example 10, 3-(4-methoxyphenyl)-3-(4-dimethylaminophenyl)-6,7-dimethoxy-13,13-dimethyl-3H,13H-indeno[2,1-f]naphtho[1,2-b]pyran]: in series [1], the “ΔOD @ Saturation (Band A)” value was determined as 0.41, the “Sensitivity ΔOD/MIN (Band A)” value is 0.20 ΔOD/MIN, the “ΔOD @ Saturation (Band B)” value is 0.50 and the “Sensitivity ΔOD/MIN (Band B)” value is given as 0.28 ΔOD/MIN. The “Bleach Rate T 1/2” value in series [1] was 2.17 min. Moreover, the “Relative ΔOD at Saturation (rating)” value in series [2] stood at 82. In series [3], the “λ MAX Vis (Band A)” value amounted to 500 nm and the “λ MAX Vis (Band B)” value is given as 615 nm.
`COc1ccc(C2(c3ccc(OC)cc3)C=Cc3c4c(c5c(OC)c(OC)c(OC)cc5c3O2)-c2ccccc2C4c2ccccc2)cc1` (stereo not shown) [Example 11, 3,3-di(4-methoxyphenyl)-6,7,8-trimethoxy-13-phenyl-3H,13H-indeno[2,1-f]naphtho[1,2-b]pyran]: in series [1], the “ΔOD @ Saturation (Band A)” value was determined as 0.66, the “Sensitivity ΔOD/MIN (Band A)” value is 0.28 ΔOD/MIN, the “ΔOD @ Saturation (Band B)” value is given as 0.62 and the “Sensitivity ΔOD/MIN (Band B)” value was 0.25 ΔOD/MIN. Also, the “Bleach Rate T 1/2” value in series [1] came to 3.05 min. In addition, the “Relative ΔOD at Saturation (rating)” value in series [2] is 106. In addition, in series [3], the “λ MAX Vis (Band A)” value was 482 nm and the “λ MAX Vis (Band B)” value is reported as 581 nm.
With `CCC1(O)c2cc(OC)c(OC)cc2-c2c1c1c(c3cc(OC)c(OC)cc23)OC(c2ccc(OC)cc2)(c2ccc(N3CCOCC3)cc2)C=C1` (stereo not shown) [Example 12, 3-(4-methoxyphenyl)-3-(4-morpholinophenyl)-6,7,10,11-tetramethoxy-13-hydroxy-13-ethyl-3H,13H-indeno[2,1-f]naphtho[1,2-b]pyran], in series [1], the “ΔOD @ Saturation (Band A)” value is given as 0.46, the “Sensitivity ΔOD/MIN (Band A)” value was 0.26 ΔOD/MIN, the “ΔOD @ Saturation (Band B)” value is 0.43 and the “Sensitivity ΔOD/MIN (Band B)” value is given as 0.27 ΔOD/MIN. For the same compound, the “Bleach Rate T 1/2” value in series [1] was 2.17 min. Also, in series [2], the “Relative ΔOD at Saturation (rating)” value came to 106. Also, in series [3], the “λ MAX Vis (Band A)” value came out at 480 nm and the “λ MAX Vis (Band B)” value amounted to 632 nm.
With `CCCCC1(O)c2cc(OC)c(OC)cc2-c2c1c1c(c3cc(OC)c(OC)cc23)OC(c2ccc(OC)cc2)(c2ccc(N3CCOCC3)cc2)C=C1` (stereo not shown) [Example 13, 3-(4-methoxyphenyl)-3-(4-morpholinophenyl)-6,7,10,11-tetramethoxy-13-hydroxy-13-butyl-3H,13H-indeno[2,1-f]naphtho[1,2-b]pyran], in series [1], the “ΔOD @ Saturation (Band A)” value is recorded as 0.39, the “Sensitivity ΔOD/MIN (Band A)” value is 0.27 ΔOD/MIN, the “ΔOD @ Saturation (Band B)” value is 0.37 and the “Sensitivity ΔOD/MIN (Band B)” value is 0.25 ΔOD/MIN. The “Bleach Rate T 1/2” value in series [1] is 1.42 min. Also, the “Relative ΔOD at Saturation (rating)” value in series [2] was 105. In series [3], the “λ MAX Vis (Band A)” value was 482 nm and the “λ MAX Vis (Band B)” value is 634 nm.

These data come from patent US6296785A, “Indeno-fused photochromic naphthopyrans” (PPG Industries Ohio, Inc., priority 2000, dated 2001).
